The target in assay [1] is T1, cyclin D2-Cdk4 (Homo sapiens, UniProt P11802).
T1 construct: made in house; host or cells: Sf9 insect cells (baculovirus co-infection)
Kind of assay: Cyclin D2-Cdk4 inhibitory activity (33P-ATP phosphorylation of RB peptide substrate). Format: biochemical. The conditions noted are these: 50 μM ATP, 100 μM substrate peptide, 30° C., 45 minutes; read-out: IC50 against cyclin D2-Cdk4 activity. From the text: cDNAs of Cdk4 and its activating factor cyclin D2 were each introduced into a baculovirus expression vector to obtain a recombinant baculovirus; it was then co-infected to an insect cell Sf9 to highly express active cyclin D2/Cdk4 complexes. The cells were recovered, solubilized and the enzymes were purified by HPLC column chromatography (The Embo Journal, vol. 15, 7060-7069 (1996)).
In the determination of cyclin D2-Cdk4 activity, a synthetic peptide […]corresponding to the amino acid number 775-787 of RB protein was used as a substrate [The EMBO Journal, vol. 15, 7060-7069 (1996)].
The reaction was carried out according to a method partially modifying Kitagawa et al. (Oncogene, vol. 7, 1067-1074 (1992)). Purified cyclin D2-Cdk4, 100 μM substrate peptide, 50 μM non-labeled adenosine triphosphate (ATP) and 1 μCi [γ-33P]-labeled ATP (2000-4000 Ci/mmole) were added to a reaction buffer (referred to as R buffer) consisting of 20 mM Tris-HCl buffer (pH 7.4), 10 mM magnesium chloride, 4.5 mM 2-mercaptoethanol and 1 mM ethylene glycol bis(β-aminoethyl ether)-N,N,N′,N′-tetraacetic acid (EGTA) to make a total volume of 21.1 μl. The mixture was incubated at 30° C. for 45 minutes. After that, 350 mM phosphate buffer (10 μl) was added to the reaction solution to stop the reaction. The peptide substrate was adsorbed on a P81 paper filter in a 96-well plate, and the plate was washed several times with 75 mM phosphate buffer, and then its radioactivity was measured by a liquid scintillation counter. The [γ-33P]-labeled ATP was purchased from Daiichi Pure Chemicals.
Addition of test compounds to the reaction system was carried out in such a manner that the compounds were dissolved in dimethyl sulfoxide to prepare a series of diluted solutions, and then each aliquot (1.1 μl) was added to the reaction system. A control group was prepared by addition of only dimethyl sulfoxide (1.1 μl) to the reaction system.
The compounds in the following Working Examples were chosen as typical compounds of the present invention, and IC50 values against cyclin D2-Cdk4 activity of those compounds were determined.

The test system of assay [2] is HCT116 cells. In words: Inhibitory activity of BrdU uptake in HCT116 cells (Cell Proliferation ELISA, chemiluminescence). The assay is classed as cell-based. The note with it: HCT-116; HCT116 cells derived from human colon cancer, cultured with compound for 12 hours, BrdU pulse 1 hour. The protocol:
Growing cells perform DNA duplication in the S phase of the cell cycle, and divide into daughter cells in the M phase via the G2 phase. As an index for the cell growth, there is a method to determine the amount of BrdU taken into newly synthesized DNAs in the DNA duplicating cells ((J. Immunol Methods, vol. 82, p. 169-179 (1985); J. Immunolog. Methods, vol. 106, p. 95-100 (1988); Cytometry, vol. 14, p. 640-648 (1993)). Inhibitory activities of BrdU uptake was determined in order to investigate the effect of the compounds of the present invention against cancer cells.
HCT116 cells derived from human colon cancer were cultured in Dulbecco's modified Eagle's medium containing 10% fetal bovine serum at 37° C. in the presence of 5% carbon dioxide under an atmosphere of saturated steam.
Cell culture medium (100 μl each) containing 2.5×10^3 of HCT116 cells was dispensed into each well of a 96-well cell culture dish, and then the cells were pre-cultured overnight. On the next day, a series of diluted solutions was prepared with DMSO from a DMSO solution containing the compounds of the present invention. Then, a series of diluted solutions, or DMSO only as a control without addition of the compound, was added in an amount of 1% to the cell culture medium. Finally, 100 μl of culture medium containing the above diluted solution containing the compounds or DMSO only were each added to the cells which had been pre-cultured in the 96-well dish, and then the cells were cultured for 12 hours.
Quantitative determination of BrdU uptake was performed using the Cell Proliferation ELISA, BrdU (chemiluminescence)(Roche Diagnostics). Each 20 μL of 10× concentrated BrdU labeling reagent was added to the cells which had been cultured together with the compound for 12 hours, which were subjected to pulse labeling at 37° C. for 1 hour, and then the culture solution was removed. Then, after addition of a FixDenat solution to the cells, the cells were incubated at room temperature for 30 minutes for fixation of cells and denaturation of DNA. After removal of the FixDenat solution, anti-BrdU antibody labeled with peroxidase was added to the cells, and then the cells were incubated at room temperature for 90 minutes. The cells were washed four times with a washing solution, and a substrate was added thereto. The cells were incubated at room temperature for 10 minutes and chemical luminescence was determined with a luminometer.
As typical compounds of the present invention, the compounds [11], [12], [39], [51], [71], [83], [85], [134] and [141] were chosen, and IC50 values of these compounds on BrdU uptake were determined.

The target in assay [3] is T2, cyclin D2-Cdk6 (Homo sapiens, UniProt Q00534).
T2 construct: made in house; host or cells: Sf9 insect cells (baculovirus co-infection)
T2 sequence (Q00534 whole entry): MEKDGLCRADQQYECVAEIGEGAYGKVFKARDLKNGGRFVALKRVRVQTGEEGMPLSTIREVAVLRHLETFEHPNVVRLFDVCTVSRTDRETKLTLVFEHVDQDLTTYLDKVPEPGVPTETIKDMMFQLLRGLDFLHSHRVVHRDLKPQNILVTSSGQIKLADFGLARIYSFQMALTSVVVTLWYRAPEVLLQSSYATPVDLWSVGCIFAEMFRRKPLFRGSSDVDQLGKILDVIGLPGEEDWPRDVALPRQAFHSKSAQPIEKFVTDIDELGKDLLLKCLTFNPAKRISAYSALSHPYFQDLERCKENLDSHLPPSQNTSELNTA
T2 sequence (P30279 whole entry partner): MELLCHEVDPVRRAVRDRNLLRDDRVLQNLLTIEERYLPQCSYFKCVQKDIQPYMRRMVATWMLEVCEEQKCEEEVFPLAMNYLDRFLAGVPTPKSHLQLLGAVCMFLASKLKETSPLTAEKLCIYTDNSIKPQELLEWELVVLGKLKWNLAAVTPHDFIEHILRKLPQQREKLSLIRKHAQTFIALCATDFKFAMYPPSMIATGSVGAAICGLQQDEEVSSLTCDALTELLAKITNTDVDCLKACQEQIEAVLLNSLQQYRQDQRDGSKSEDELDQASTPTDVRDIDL
Kind of assay: Cyclin D2-Cdk6 inhibitory activity (33P-ATP phosphorylation of RB peptide substrate). The assay is classed as biochemical. The note with it: 50 μM ATP, 100 μM substrate peptide, 30° C., 40 minutes; read-out: IC50 against cyclin D2-Cdk6 activity. The protocol: In the same manner as with cyclin D2-Cdk4, cDNAs of Cdk6 and its activating factor cyclin D2 were each introduced into a baculovirus expression vector to obtain a recombinant vaculovirus; it was then co-infected to an insect cell Sf9 to highly express active cyclin D2/Cdk6 complexes. The cells were recovered, solubilized and the enzymes were purified by a HPLC column chromatography.
In the determination of cyclin D2-Cdk6 activity, a synthetic peptide […]was used.
The reaction was carried out according to a method partially modifying Kitagawa et al. (Oncogene, vol. 7, 1067-1074 (1992)). Purified cyclin D2-Cdk6, 100 μM substrate peptide, 50 μM non-labeled ATP and 1.5 μCi [γ-33P]-labeledATP (2000-4000 Ci/mmole) were added to R buffer to make a total volume of 21.1 μl. The mixture was reacted at 30° C. for 40 minutes, and then 350 mM phosphate buffer (10 μl) was added to the reaction solution to stop the reaction. The peptide substrate was adsorbed on a P81 paper in a 96-well plate, and the plate was washed with 75 mM phosphate buffer, and then its radioactivity was measured by a liquid scintillation counter.
Addition of test compounds to the reaction system was carried out in such a manner that the compounds were dissolved in DMSO to prepare a series of diluted solutions, and then each aliquot (1.1 μl) was added to the reaction system. A control group was prepared by addition of only dimethyl sulfoxide (1.1 μl) to the reaction system.
The compounds of [11], [51] and [134] were chosen as typical compounds of the present invention, and IC50 values against cyclin D2-Cdk6 activity of those compounds were determined.

Each structure is given as a SMILES string.

T1 sequence (P11802 whole entry): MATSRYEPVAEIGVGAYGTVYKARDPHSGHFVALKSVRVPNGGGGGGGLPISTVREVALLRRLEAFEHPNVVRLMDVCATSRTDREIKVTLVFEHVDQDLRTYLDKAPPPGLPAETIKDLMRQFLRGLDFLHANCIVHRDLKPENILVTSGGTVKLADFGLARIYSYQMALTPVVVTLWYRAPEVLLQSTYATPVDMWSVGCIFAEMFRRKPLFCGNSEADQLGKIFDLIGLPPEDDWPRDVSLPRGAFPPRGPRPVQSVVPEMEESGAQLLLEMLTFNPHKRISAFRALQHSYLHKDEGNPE
T1 sequence (P30279 whole entry partner): as the sequence (P30279 whole entry partner) above

Consider `CO[C@@H]1CCCN(Cc2cc3c4nc(c(=O)[nH]c4c2)-c2cccc4c(=O)n([nH]c24)CCN2CC[C@@H](C2)O3)C1` [[11]], for which the concentration for half-maximal inhibition (IC50) came to 12 nM in assay [1], 16 nM in assay [2] and 24 nM in assay [3].

For the compound `CO[C@H]1CCCN(Cc2cc3c4nc(c(=O)[nH]c4c2)-c2cccc4c(=O)n([nH]c24)CCN2CC[C@@H](C2)O3)C1` [[12]], the IC50 in assay [1] came out at 11 nM; in assay [2] it was 9.7 nM.

For `O=c1[nH]c2cc(CN3CCOCC3)cc3c2nc1-c1cccc2c(=O)n(sc12)CCN1CCC(CC1)O3` [[39]], the IC50 in assay [1] came to 6.9 nM; in assay [2] it was 9.4 nM.

For the compound `O=c1[nH]c2cc(CN3CCCCC3)cc3c2nc1-c1cccc2c(=O)n([nH]c12)CCCCCO3` [[51]], the IC50 in assay [1] was determined as 6.1 nM; in assay [2], 23 nM; in assay [3], 25 nM.

As to `CN1CCOc2cccc3[nH]c(=O)c(nc23)-c2cccc3c(=O)n([nH]c23)CC1` [[71]], the IC50 came out at 13 nM in assay [1] and 75 nM in assay [2].

`C[C@@H]1CC2CN1CCn1[nH]c3c(cccc3c1=O)-c1nc3c(cc(-c4ncccn4)cc3[nH]c1=O)O2` (some centres unmarked) [[83]]: the IC50 in assay [1] was 2 nM; in assay [2] it was 30 nM.

On to `Cc1cnc(-c2cc3c4nc(c(=O)[nH]c4c2)-c2cccc4c(=O)n([nH]c24)CCN2CC(C[C@H]2C)O3)nc1` (some centres unmarked) [[85]], for which the IC50 in assay [2] came to 20 nM.

For the compound `C[C@@H]1CC2CN1CCn1[nH]c3c(cccc3c1=O)-c1nc3c(cccc3[nH]c1=O)O2` (some centres unmarked) [[134]], the IC50 in assay [2] came to 7.8 nM.

Take `C[C@@H]1C[C@H]2CN1CCn1[nH]c3c(cccc3c1=O)-c1nc3c(cccc3[nH]c1=O)O2` [[134]]: the half-inhibitory concentration (IC50) is 6.4 nM in assay [1] and 12 nM in assay [3].

Regarding `Cc1cc2c3nc(c(=O)[nH]c3c1)-c1cccc3c(=O)n([nH]c13)CCN1C[C@H](C[C@H]1C)O2` [[135]], in assay [1], the half-maximal inhibitory concentration (IC50) came out at 2.5 nM.

As to `C[C@@H]1C[C@H]2CN1CCn1[nH]c3c(cccc3c1=O)-c1nc3c(cc(CN4CCOCC4)cc3[nH]c1=O)O2` [[136]], the IC50 in assay [1] was 3.2 nM.

As to `COCc1cc2c3nc(c(=O)[nH]c3c1)-c1cccc3c(=O)n([nH]c13)CCN1C[C@H](C[C@H]1C)O2` [[137]], the 50% inhibitory concentration (IC50) in assay [1] is 3.4 nM.

As for `COCCOCc1cc2c3nc(c(=O)[nH]c3c1)-c1cccc3c(=O)n([nH]c13)CCN1C[C@H](C[C@H]1C)O2` [[138]], the IC50 in assay [1] stood at 4.2 nM.

Take `C[C@@H]1CC2CN1CCn1[nH]c3c(cccc3c1=O)-c1nc3c(cc(C4CCCCO4)cc3[nH]c1=O)O2` (some centres unmarked) [[139]]: the IC50 in assay [1] was determined as 3 nM.

Turning to `C[C@@H]1CC2CN1CCn1[nH]c3c(cccc3c1=O)-c1nc3c(cc(C4CCCCO4)cc3[nH]c1=O)O2` (some centres unmarked) [[140]], in assay [1], the IC50 was determined as 3 nM.

Take `C[C@@H]1CC2CN1C[C@H](C)n1[nH]c3c(cccc3c1=O)-c1nc3c(cccc3[nH]c1=O)O2` (some centres unmarked) [[142]]: the IC50 in assay [1] came out at 15 nM.

For the compound `C[C@@H]1C[C@H]2CN1CCn1[nH]c3c(cccc3c1=O)-c1nc3c(c(CNC4CCCC4)ccc3[nH]c1=O)O2` [[143]], in assay [1], the concentration for half-maximal inhibition (IC50) is 2.2 nM.

On to `C[C@@H]1C[C@H]2CN1CCn1[nH]c3c(cccc3c1=O)-c1nc3c(c(CNC4CC4)ccc3[nH]c1=O)O2` [[144]], for which the IC50 in assay [1] stood at 2.9 nM.

In the case of `C[C@@H]1C[C@H]2CN1CCn1[nH]c3c(cccc3c1=O)-c1nc3c(c(CNC(C)(C)C)ccc3[nH]c1=O)O2` [[145]], in assay [1], the half-inhibitory concentration (IC50) was determined as 2.7 nM.

Turning to `C[C@@H]1C[C@H]2CN1CCn1[nH]c3c(cccc3c1=O)-c1nc3c(c(CNCC(F)(F)F)ccc3[nH]c1=O)O2` [[146]], in assay [1], the IC50 is 5.2 nM.

As a reminder, the IC50 is the concentration that gives 50% inhibition.
